The source of these data is patent EP0943615A1, “1,4-DIHYDROPYRIDINE DERIVATIVES” (Nikken Chemicals Company, Limited, priority 1996, dated 1998).

Structures are written as SMILES.

In this assay the test system is VJ-300 cells. The experiment in a line: In vitro test of action suppressing proliferation of cancer cells, combined administration of doxorubicin (colony formation), resistant cells. Type of assay: cell-based, Human. The note with it: ADM alone or ADM + test compound 1 µg/ml, LD50 of ADM relative to ADM alone in KB cells = 1, 7 days incubation, colony count. The procedure: Human rhinopharynx cancer derived KB cells (i.e., sensitive cells) and their multi-drug resistant clone VJ-300 cells (i.e., resistant cells) were used as the test cells. As the incubation solutions, use was made of 10% fetal calf serum (Flow Laboratories) and Eagle MEM medium (Nissui Seiyaku) containing 0.292 mg/ml of L-glutamine (Flow Laboratories). The tests of the action for overcoming resistance to anti-cancer drugs or action for increasing the effect of the anti-cancer drug with the combined administration of the anti-cancer drug doxorubicin (i.e., adriamycin, ADM) and the test compound were performed as follows:
The test cells were suspended in incubation solutions and adjusted to a cell density of about 200 cells/ml. The cell suspensions were injected in 2 ml amounts into petri dishes and were incubated in a CO2 gas incubator (5% CO2, 95% air) at 37°C for 24 hours. Then, 5 µl of a predetermined concentration of the aqueous ADM solution and a predetermined concentration of a DMSO solution of the test compound were added, then the incubation was continued for a further 7 days. After the end of the incubation, the result was immobilized with methanol, Giemsa stained and measured for the number of colonies per dish. The results were used to prepare a volume-reaction curve. […] The results are shown in Table 8 to Table 10 using the concentration of LD50 of ADM in the ADM alone group by KB cells as the resistance degree 1 and calculating the resistances of the following LD50 concentrations as relative ratios. […]
For `CCCCCC1C(C(=O)OCCCc2cccnc2)=C(C)NC(c2ccc(-n3ccnc3)cc2)=C1C(=O)OCC` (stereo not shown) [Compound 44, 2-[4-(1-imidazolyl)phenyl]-6-methyl-4-pentyl-1,4-dihydropyridin-3,5-dicarboxylate 3-ethylester, 5-[3-(3-pyridyl)propyl]-ester], the “Degree of resistance for ADM VJ-300” value is 1.4.

With `CCOC(=O)C1=C(c2ccc(-n3c(C)nc4cnccc43)cc2)NC(C)=C(C(=O)OC/C=C/c2cccnc2)C1/C=C/c1ccoc1` (stereo not shown) [Compound 27, 4-[(E]-2-(3-furyl)ethenyl]-6-methyl-2-[4-(2-methylimidazo[4,5-c]pyridin-1-yl)phenyl]-1,4-dihydropyridin-3,5-dicarboxylate 3-ethylester, 5-[(E)-3-(3-pyridyl)-2-propenyl]ester], the “Degree of resistance for ADM VJ-300” value was found to be 8.7.

Consider `COC(=O)C1=C(c2ccc(-n3c(C)nc4cnccc43)cc2)NC(C)=C(C(=O)OC/C=C/c2cccnc2)C1/C=C/c1ccccc1` (stereo not shown) [Compound 42, 6-methyl-2-[4-(2-methylimidazo[4,5-c]pyridin-1-yl)phenyl]-4-[(E)-2-phenylethenyl]-1,4-dihydropyridin-3,5-dicarboxylate 3-methylester, 5-[(E)-3-(3-pyridyl)-2-propenyl]ester], for which the “Degree of resistance for ADM VJ-300” value is given as 2.1.

Consider `CCOC(=O)C1=C(c2ccc(-n3c(C)nc4cnccc43)cc2)NC(C)=C(C(=O)OCCCc2cccnc2)C1C=C(C)C` (stereo not shown) [Compound 11, 6-methyl-2-[4-(2-methylimidazo[4,5-c]pyridin-1-yl)phenyl]-4-(2-methyl-1-propenyl)-1,4-dihydropyridin-3,5-dicarboxylate 3-ethylester, 5-[3-(3-pyridyl)propyl]ester], for which the “Degree of resistance for ADM VJ-300” value turned out to be 3.2.

`CCCCC1C(C(=O)OCCCc2cccnc2)=C(C)NC(c2ccc(-n3c(C)nc4cnccc43)cc2)=C1C(=O)OCC` (stereo not shown) [Compound 6, 4-butyl-6-methyl-2-[4-(2-methylimidazo[4,5-c]pyridin-1-yl)phenyl]-1,4-dihydropyridin-3,5-dicarboxylate 3-ethylester, 5-[3-(3-pyridyl)propyl]ester]: the “Degree of resistance for ADM VJ-300” value was found to be 2.8.

For the compound `COC(=O)C1=C(c2ccc(-n3ccnc3)cc2)NC(C)=C(C(=O)OC/C=C/c2cccnc2)C1C1CCCCC1` (stereo not shown) [Compound 38, 4-cyclohexyl-2-[4-(1-imidazolyl)phenyl]-6-methyl-1,4-dihydropyridin-3,5-dicarboxylate 3-methylester, 5-[(E)-3-(3-pyridyl)-2-propenyl]ester], the “Degree of resistance for ADM VJ-300” value is 2.4.

Consider `CCOC(=O)C1=C(c2ccc(-n3c(C)nc4cnccc43)cc2)NC(C)=C(C(=O)OCCCc2cccnc2)C1CCc1ccccc1` (stereo not shown) [Compound 13, 6-methyl-2-[4-(2-methylimidazo[4,5-c]pyridin-1-yl)phenyl]-4-(2-phenylethyl)-1,4-dihydropyridin-3,5-dicarboxylate 3-ethylester, 5-[3-(3-pyridyl)propyl]ester], for which the “Degree of resistance for ADM VJ-300” value was found to be 2.6.

For `CCOC(=O)C1=C(c2ccc(-n3c(C)nc4cnccc43)cc2)NC(C)=C(C(=O)OCCCc2cccnc2)C1Cc1ccccc1` (stereo not shown) [Compound 12, 4-benzyl-6-methyl-2-[4-(2-methylimidazo[4,5-c]pyridin-1-yl)phenyl]-1,4-dihydropyridin-3,5-dicarboxylate 3-ethylester, 5-[3-(3-pyridyl)propyl]ester], the “Degree of resistance for ADM VJ-300” value is listed as 6.5.

Turning to `CCOC(=O)C1=C(c2ccc(-n3c(C)nc4cnccc43)cc2)NC(C)=C(C(=O)OCCCc2cccnc2)C1CC(C)C` (stereo not shown) [Compound 10, 6-methyl-2-[4-(2-methylimidazo[4,5-c]pyridin-1-yl)phenyl]-4-(2-methylpropyl)-1,4-dihdropyridin-3,5-dicarboxylate 3-ethylester, 5-[3-(3-pyridyl)propyl]ester], the “Degree of resistance for ADM VJ-300” value turned out to be 1.4.

In the case of `CCCCCC1C(C(=O)OCC=Cc2cccnc2)=C(C)NC(c2ccc(-n3c(C)nc4ncccc43)cc2)=C1C(=O)OCC` (stereo not shown) [Compound 4, 6-methyl-2-[4-(2-methylimidazo[4,5-b]pyridin-1-yl)phenyl]-4-pentyl-1,4-dihydropyridin-3,5-dicarboxylate 3-ethylester, 5-[3-(3-pyridyl)-2-propenyl]ester], the “Degree of resistance for ADM VJ-300” value stood at 1.2.

Take `CCOC(=O)C1=C(c2ccc(-n3c(C)nc4cnccc43)cc2)NC(C)=C(C(=O)OC/C=C/c2cccnc2)C1/C=C/c1ccccc1` (stereo not shown) [Compound 25, 6-methyl-2-[4-(2-methylimidazo[4,5-c]pyridin-1-yl)phenyl]-4-[(E)-2-phenylethenyl]-1,4-dihydropyridin-3,5-dicarboxylate 3-ethylester, 5-[(E)-3-(3-pyridyl)-2-propenyl]ester]: the “Degree of resistance for ADM VJ-300” value worked out at 1.1.

In the case of `CCOC(=O)C1=C(c2ccc(-n3c(C)nc4cnccc43)cc2)NC(C)=C(C(=O)OC/C=C(/c2cccnc2)c2cccs2)C1CCc1ccccc1` (stereo not shown) [Compound 20, 6-methyl-2-[4-(2-methylimidazo[4,5-c]pyridin-1-yl)phenyl]-4-(2-phenylethyl)-1,4-dihydropyridin-3,5-dicarboxylate 3-ethylester, 5-[(Z]-3-(3-pyridyl)-3-(2-thienyl)-2-propenyl]ester], the “Degree of resistance for ADM VJ-300” value amounted to 1.6.

For `CCOC(=O)C1=C(c2ccc(-n3c(C)nc4cnccc43)cc2)NC(C)=C(C(=O)OCCCC(=O)c2cccnc2)C1C=C1CCCCC1` (stereo not shown) [Compound 46, 4-cyclohexylidenemethyl-6-methyl-2-[4-(2-methylimidazo[4,5-c]pyridin-1-yl)phenyl]-1,4-dihydropyridin-3,5-dicarboxylate 3-ethylester 5-(3-nicotinoylpropyl)ester], the “Degree of resistance for ADM VJ-300” value is given as 2.5.

On to `CCCCCC1C(C(=O)OC/C=C/c2cccnc2)=C(C)NC(c2cccc(-n3ccnc3)c2)=C1C(=O)OCC` (stereo not shown) [Compound 37, 2-[3-(1-imidazolyl)phenyl]-6-methyl-4-pentyl-1,4-dihydropyridin-3,5-dicarboxylate 3-ethylester, 5-[(E)-3-(3-pyridyl)-2-propenyl]ester], for which the “Degree of resistance for ADM VJ-300” value is given as 2.5.

Regarding `CCOC(=O)C1=C(c2ccc(-n3c(C)nc4cnccc43)cc2)NC(C)=C(C(=O)OC/C=C/c2cccnc2)C1CCc1ccsc1` (stereo not shown) [Compound 26, 6-methyl-2-[4-(2-methylimidazo[4,5-c]pyridin-1-yl)phenyl]-4-[2-(3-thienyl)ethyl)-1,4-dihydropyridin-3,5-dicarboxylate 3-ethylester, 5-[(E)-3-(3-pyridyl)-2-propenyl]ester], the “Degree of resistance for ADM VJ-300” value came to 1.8.

Take `CCOC(=O)C1=C(c2ccc(-n3c(C)nc4cnccc43)cc2)NC(C)=C(C(=O)OCCCc2cccnc2)C1/C=C/c1ccccc1` (stereo not shown) [Compound 14, 6-methyl-2-[4-(2-methylimidazo[4,5-c]pyridin-1-yl)phenyl]-4-[(E)-2-phenylethenyl]-1,4-dihydropyridin-3,5-dicarboxylate 3-ethylester, 5-[3-(3-pyridyl)propyl]ester]: the “Degree of resistance for ADM VJ-300” value is on record as 1.3.

Turning to `CCOC(=O)C1=C(c2ccc(-n3c(C)nc4cnccc43)cc2)NC(C)=C(C(=O)OCCCC(=O)c2cccnc2)C1/C=C/c1ccccc1` (stereo not shown) [Compound 47, 6-methyl-2-[4-(2-methylimidazo[4,5-c]pyridin-1-yl)phenyl]-4-[(E)-2-phenylethenyl]-1,4-dihydropyridin-3,5-dicarboxylate 3-ethylester, 5-(3-nicotinoylpropyl)ester], the “Degree of resistance for ADM VJ-300” value is 1.2.

Take `CCOC(=O)C1=C(c2ccc(-n3cnc4ccccc43)cc2)NC(C)=C(C(=O)OCCCC(=O)c2cccnc2)C1C=C1CCCCC1` (stereo not shown) [Compound 48, 4-cyclohexylidenemethyl-6-methyl-2-[4-(1-benzimidazolyl)phenyl]-1,4-dihydropyridin-3,5-dicarboxylate 3-ethylester, 5-(3-nicotinoylpropyl)ester]: the “Degree of resistance for ADM VJ-300” value is given as 1.7.

Regarding `COc1cccc2c1C(=O)c1c(O)c3c(c(O)c1C2=O)C[C@@](O)(C(=O)CO)C[C@@H]3O[C@H]1C[C@H](N)[C@H](O)[C@H](C)O1` [ADM, doxorubicin, reference compound], the “Degree of resistance for ADM VJ-300” value is 26 - 51.

In the case of `CCOC(=O)C1=C(c2ccc(-n3c(C)nc4cnccc43)cc2)NC(C)=C(C(=O)OCCCCCc2cccnc2)C1CCc1ccccc1` (stereo not shown) [Compound 18, 6-methyl-2-[4-(2-methylimidazo[4,5-c]pyridin-1-yl)phenyl]-4-(2-phenylethyl)-1,4-dihydropyridin-3,5-dicarboxylate 3-ethylester, 5-[5-(3-pyridyl)pentyl]ester], the “Degree of resistance for ADM VJ-300” value came out at 1.4.

Turning to `CCCCCC1C(C(=O)OC/C=C(/c2cccnc2)c2cccs2)=C(C)NC(c2ccc(-n3c(C)nc4cnccc43)cc2)=C1C(=O)OCC` (stereo not shown) [Compound 19, 6-methyl-2-[4-(2-methylimidazo[4,5-c]pyridin-1-yl)phenyl]-4-pentyl-1,4-dihydropyridin-3,5-dicarboxylate 3-ethylester, 5-[(Z)-3-(3-pyridyl)-3-(2-thienyl)-2-propenyl]ester], the “Degree of resistance for ADM VJ-300” value is 1.2.

With `CCOC(=O)C1=C(c2ccc(N3CCN(C)CC3)cc2)NC(C)=C(C(=O)OC/C=C/c2cccnc2)C1/C=C/c1ccccc1` (stereo not shown) [Compound 30, 6-methyl-2-[4-(4-methylpiperadin-1-yl)phenyl]-1,4-dihydropyridin-4-[(E)-2-phenylethenyl]-3,5-dicarboxylate 3-ethylester, 5-[(E)-3-(3-pyridyl)-2-propenyl]ester], the “Degree of resistance for ADM VJ-300” value is listed as 1.0.
